{
  "source": "patent US20140045908A1",
  "about": "“HSP90 INHIBITORY COMPOUNDS IN TREATING JAK/STAT SIGNALING-MEDIATED CANCERS” (SYNTA PHARMACEUTICALS CORP., priority 2011, published 2014)",
  "key": {"[1]": {"test_system": "JAK2/STAT3 signaling in HCC827 cells", "assay": "Western blot of constitutive and IL-6 induced STAT3 activity in HCC827 cells", "format": "cell-based, human", "protocol": "HCC827 lung cancer cells were treated with increasing concentrations of ganetespib or P6 for 24 h followed by a 15 min stimulation with or without 50 ng/ml human recombinant IL-6. The levels of JAK2, total and phospho-STAT3, and PIM2 were analyzed by western blot. GAPDH is included as a loading control.\nCells were disrupted in lysis buffer (CST) and solubilized in 2% SDS. Xenograft tumors (average volume of 100-200 mm3) were excised, cut in half, and flash frozen in liquid nitrogen. Each tumor fragment was lysed in 0.5 mL of lysis buffer using a FastPrep-24 homogenizer and Lysing Matrix A (MP Biomedicals, Solon, Ohio, USA) and lysates clarified by centrifugation. Equal amounts of proteins were resolved by SDS-PAGE and immunoblotted with indicated antibodies. The antigen-antibody complex was visualized and quantitated using an Odyssey system (LI-COR, Lincoln, Nebr., USA)."}, "MV4-11 xenografts": {"test_system": "MV4-11 xenografts", "assay": "MV4-11 acute myeloid leukemia xenograft model", "format": "in vivo, SCID mice", "protocol": "Mice bearing established MV4-11 xenografts (100-200 mm3, n=8 mice/group) were i.v. dosed (arrowheads) with ganetespib at either 25 or 150 mg/kg once weekly for 3 weeks, or at the HNSTD of 25 mg/kg five-times per week, as indicated. % T/C values are indicated to the right of each growth curve and the error bars are the s.e.m.\nEight-week-old female immunodeficient CB-17/Icr-Prkdcscid/Crl (SCID) mice (Charles River Laboratories, Wilmington, Mass.) were maintained in a pathogen-free environment, and all in vivo procedures were approved by the Synta Pharmaceuticals Corp. Institutional Animal Care and Use Committee. For the MV4-11 model, tumor cells were subcutaneously implanted in SCID mice as previously described (34). Tumor volumes (V) were calculated by caliper measurements of the width (W), length (L), and thickness (T) of each tumor using the formula: V=0.5236 (LWT).\nAnimals with 100-200 mm^3 tumors were then randomized into treatment groups of 8 and i.v. dosed via the tail vein at 10 mL/kg body weight with either vehicle or ganetespib formulated in 10/18 DRD (10% DMSO, 18% Cremophor RH 40, 3.6% dextrose, 68.4% water). Tumor growth inhibition was monitored by tumor volume measurements twice weekly. As a measurement of in vivo efficacy, the % T/C value was determined from the change in average tumor volumes of each treated group relative to the vehicle-treated or itself in the case of tumor regression. Statistical significance was determined using a Kruskal-Wallis one-way ANOVA followed by the Tukey Test multiple comparison procedure.\nFor both models, studies were conducted at the highest non-severely toxic doses (NHSTDs) of 150 mg/kg ganetespib one-time per week or 25 mg/kg ganetespib 5×/week for 3 weeks based on prior tolerability studies conducted in non-tumor bearing mice."}, "[2]": {"conditions": "24 h, absence of external ligand"}},
  "data": [
    {"smiles": "CC(C)c1cc(-c2nnc(O)n2-c2ccc3c(ccn3C)c2)c(O)cc1O", "note": "[ganetespib, 3-(2,4-dihydroxy-5-isopropyl-phenyl)-4-(1-methyl-indol-5-yl)-5-hydroxy-[1,2,4] triazole]", "values": [
      {"measurement": "JAK2 expression", "setting": "[1]; [2]", "value": "dose-dependent decrease in JAK2 expression"},
      {"measurement": "constitutive STAT3 activity", "setting": "[1]; [2]", "value": "loss of STAT3 activity"},
      {"measurement": "JAK/STAT signaling stimulated by exogenous IL-6", "setting": "[1]; 24 h then 15 min 50 ng/ml IL-6", "value": "blocked JAK/STAT signaling stimulation"},
      {"measurement": "tumor regression", "setting": "MV4-11 xenografts; 25 mg/kg i.v. 5×/week for 3 weeks", "value": 84, "unit": "%"},
      {"measurement": "tumor growth inhibition", "setting": "MV4-11 xenografts; 25 or 150 mg/kg i.v. once weekly for 3 weeks", "value": "significant and dose dependent tumor growth inhibition"},
      {"measurement": "time tumor growth stayed suppressed once treatment was discontinued", "setting": "MV4-11 xenografts; both dosing regimens", "value": "up to a week or more"}
    ]}
  ]
}
